In the supplement of paper PMC11061612:

What was measured:
Experiment in all cases: combination Emax (second highest fraction inhibited in the dose matrix, 72 h); higher = more inhibition; extreme values may be limits of the assay
[1] = test system: SNU-423 (Hepatocellular Carcinoma)
Outline: (§1)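 Cell lines in DMEM/F12 or RPMI with 10% FBS were plated in 1536-well plates, held 24 hours at 37°C, 5% CO2, then given two-drug dose matrices for 72 hours (DMSO typically 0.2%). Viability was read by CellTiter-Glo 2.0 luminescence and scaled as inhibition from 0 (vehicle wells) to 1 (blank wells). Combination Emax is the second-highest inhibition in the matrix; Bliss excess is observed combination effect minus expected EA + EB − EA·EB, EA and EB being single-agent effects.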

[2] = test system: BxPC-3 (Pancreatic Carcinoma)
Outline: as §1

NCI-H226 (Mesothelioma) = test system: NCI-H226 (Mesothelioma)
Outline: as §1

[3] = test system: C-33-A (Cervical Carcinoma)
Outline: as §1

[4] = test system: LCLC-103H (Non-Small Cell Lung Carcinoma)
Outline: as §1

GAK (Melanoma) = test system: GAK (Melanoma)
Outline: as §1

[5] = test system: IA-LM (Non-Small Cell Lung Carcinoma)
Outline: as §1

[6] = test system: NCI-H3118 (Head and Neck Carcinoma)
Outline: as §1

[7] = test system: SK-CO-1 (Colorectal Carcinoma)
Outline: as §1

[8] = test system: NAMALWA (Burkitt's Lymphoma)
Outline: as §1

[9] = test system: LS-1034 (Colorectal Carcinoma)
Outline: as §1

[10] = test system: MDA-MB-415 (Breast Carcinoma)
Outline: as §1

KALS-1 (Glioblastoma) = test system: KALS-1 (Glioblastoma)
Outline: as §1

IST-MEL1 (Melanoma) = test system: IST-MEL1 (Melanoma)
Outline: as §1

SK-N-SH (Neuroblastoma) = test system: SK-N-SH (Neuroblastoma)
Outline: as §1

[11] = test system: MS-1 (Small Cell Lung Carcinoma)
Outline: as §1

[12] = test system: MONO-MAC-6 (Acute Myeloid Leukemia)
Outline: as §1

[13] = test system: HPAF-II (Pancreatic Carcinoma)
Outline: as §1

[14] = test system: RCC-JW (Kidney Carcinoma)
Outline: as §1

[15] = test system: ZR-75-30 (Breast Carcinoma)
Outline: as §1

Structure (SMILES) | combination Emax [1] | combination Emax [2] | combination Emax (NCI-H226 (Mesothelioma)) | combination Emax [3] | combination Emax [4] | combination Emax (GAK (Melanoma)) | combination Emax [5] | combination Emax [6] | combination Emax [7] | combination Emax [8] | combination Emax [9] | combination Emax [10] | combination Emax (KALS-1 (Glioblastoma)) | combination Emax (IST-MEL1 (Melanoma)) | combination Emax (SK-N-SH (Neuroblastoma)) | combination Emax [11] | combination Emax [12] | combination Emax [13] | combination Emax [14] | combination Emax [15]
Cc1c2c(nn1C)CSCc1cc(n(C)n1)CSc1cc(c3ccccc3c1)OCCCc1c(C(=O)O)n(C)c3c-2c(Cl)ccc13 [AZD5991] + CS(=O)(=O)CCNCc1ccc(-c2ccc3ncnc(Nc4ccc(OCc5cccc(F)c5)c(Cl)c4)c3c2)o1 [Lapatinib] (first compound max 1 µM, 7x7, partner max 10 µM) | 0.289 | 0.483 | 0.145 | 0.514 | 0.2 | 0.352 | 0.297 | 0.723 | 0.471 | 0.977 | 0.39 | 0.558 | 0.332 | 0.295 | 0.442 | 0.535 | 1 | 0.213 | 0.981 | 0.974
Cc1c2c(nn1C)CSCc1cc(n(C)n1)CSc1cc(c3ccccc3c1)OCCCc1c(C(=O)O)n(C)c3c-2c(Cl)ccc13 [AZD5991] + Nc1ccn([C@@H]2O[C@H](CO)[C@@H](O)C2(F)F)c(=O)n1 [Gemcitabine] (first compound max 1 µM, 7x7, partner max 0.3 µM) | 0.43 | 0.47 | 0.173 | 0.895 | 0.513 | 0.473 | 0.261 | 0.818 | 0.864 | 1 | 0.614 | 0.526 | 0.542 | 0.606 | 0.757 | 0.722 | 1 | 0.268 | 0.828 | 0.36
C[C@@H]1COCCN1c1cc(C2([S@](C)(=N)=O)CC2)nc(-c2ccnc3[nH]ccc23)n1 [AZD6738] + C1CC(C1)(C(=O)[O-])C(=O)[O-].N.N.[Pt+2] [Carboplatin] (first compound max 10 µM, 7x7, partner max 10 µM) | 0.39 | 0.349 | 0.236 | – | 0.385 | 0.491 | 0.171 | 0.61 | 0.808 | 0.896 | 0.677 | 0.549 | 0.802 | 0.679 | 0.818 | 0.659 | 0.858 | 0.36 | 0.51 | 0.262
C[C@@H]1COCCN1c1cc(C2([S@](C)(=N)=O)CC2)nc(-c2ccnc3[nH]ccc23)n1 [AZD6738] + Nc1ccn([C@@H]2O[C@H](CO)[C@@H](O)C2(F)F)c(=O)n1 [Gemcitabine] (first compound max 10 µM, 7x7, partner max 0.3 µM) | 0.724 | 0.63 | 0.495 | 0.969 | 0.794 | 0.503 | 0.462 | 0.846 | 0.897 | 1 | 0.902 | 0.642 | 0.896 | 0.768 | 0.932 | 0.961 | 1 | 0.577 | 0.877 | 0.269
Cc1cc2ncnn2cc1Nc1ncc2c(n1)n(C1CCOCC1)c(=O)n2C [AZD7648] + COc1cc([C@@H]2c3cc4c(cc3[C@@H](O[C@@H]3O[C@@H]5CO[C@@H](C)O[C@H]5[C@H](O)[C@H]3O)[C@H]3COC(=O)[C@H]23)OCO4)cc(OC)c1O [Etoposide] (first compound max 10 µM, 7x7, partner max 10 µM) | 0.555 | 0.223 | 0.332 | 0.945 | 0.584 | 0.525 | 0.28 | 0.768 | 0.879 | 0.985 | 0.335 | 0.483 | 0.787 | 0.638 | 0.945 | 0.842 | 1 | 0.199 | 0.56 | 0.258
C[C@@H](Nc1cc(F)cc(F)c1)c1cc(C(=O)N(C)C)cc2c(=O)cc(N3CCOCC3)oc12 [AZD8186] + C1CN(CCC1(C(=O)N[C@@H](CCO)C2=CC=C(C=C2)Cl)N)C3=NC=NC4=C3C=CN4 [AZD5363] (first compound max 10 µM, 7x7, partner max 10 µM) | 0.416 | 0.323 | 0.295 | 0.589 | 0.417 | 0.261 | 0.215 | 0.519 | 0.725 | 0.485 | 0.294 | 0.834 | 0.398 | 0.408 | 0.364 | 0.223 | 0.547 | 0.249 | 0.537 | 0.441
